The source made the active and inactive calls. The rule behind the calls is not given here.
How the values were obtained:
[1] = target: T1, Bromodomain-containing protein 4 (Homo sapiens, UniProt O60885); test: biochemical; type: cell-based
Description: Inhibition of human N-terminal His6 tagged BRD4 BD1 (57 to 168) residues expressed in Escherichia coli BL21(DE3) cells after 1 hr by TR-FRET assay

[2] = target: T1, Bromodomain-containing protein 4; test: Inhibition of human N-terminal His6 tagged BRD4 BD2 (352 to 457) residues expressed in Escherichia coli BL21(DE3) cells after 1 hr by TR-FRET assay
SKM-1 [3] = test: Antiproliferative activity against human SKM1 cells assessed as reduction in cell viability after 5 days by CellTiter-Glo assay; type: functional, cell-based; settings: SKM-1, 120 h
NCI-H1299 = test: Antiproliferative activity against human H1299 cells assessed as reduction in cell viability after 5 days by CellTiter-Glo assay; type: functional, cell-based; settings: NCI-H1299, 120 h
[4] = Unbound hepatic clearance in human liver microsomes; type: ADME, Microsome
[5] = Unbound hepatic clearance in mouse liver microsomes; type: ADME, Microsome
[6] = Unbound hepatic clearance in rat liver microsomes; type: ADME, Microsome
[7] = Permeability in dog MDCK cells by PAMPA; type: ADME, cell-based, Canis lupus familiaris; settings: read-out: permeability
[8] = Oral bioavailability in mouse at 1 mg/kg; type: ADME, organism-based; settings: in vivo
[9] = AUC in dog at 0.3 mg/kg, po; type: ADME, organism-based, Canis lupus familiaris; settings: in vivo
[10] = AUC in mouse at 1 mg/kg, po; type: ADME, organism-based; settings: in vivo
[11] = AUC in rat at 1 mg/kg, po; type: ADME, organism-based; settings: in vivo
[12] = Half life in rat at 1 mg/kg, po; type: ADME, organism-based; settings: in vivo
[13] = Half life in dog at 0.3 mg/kg, po; type: ADME, organism-based, Canis lupus familiaris; settings: in vivo
[14] = Half life in mouse at 1 mg/kg, po; type: ADME, organism-based; settings: in vivo
[15] = Clearance in dog plasma at 0.1 mg/kg, iv; type: ADME, organism-based, Canis lupus familiaris
[16] = Clearance in mouse plasma at 1 mg/kg, iv; type: ADME, organism-based
[17] = Clearance in rat plasma at 1 mg/kg, iv; type: ADME, organism-based
[18] = AUC in dog at 0.1 mg/kg, iv; type: ADME, organism-based, Canis lupus familiaris; settings: in vivo
[19] = AUC in monkey at 0.1 mg/kg, iv; type: ADME, organism-based, Macaca mulatta; settings: rhesus monkey, in vivo
[20] = AUC in mouse at 1 mg/kg, iv; type: ADME, organism-based; settings: in vivo
[21] = AUC in rat at 1 mg/kg, iv; type: ADME, organism-based; settings: in vivo
[22] = Volume of distribution at steady state in monkey at 0.1 mg/kg, iv; type: ADME, organism-based, Macaca mulatta; settings: rhesus monkey, in vivo, read-out: Vdss
[23] = Volume of distribution at steady state in rat at 1 mg/kg, iv; type: ADME, organism-based; settings: in vivo, read-out: Vdss
[24] = Volume of distribution at steady state in dog at 0.1 mg/kg, iv; type: ADME, organism-based, Canis lupus familiaris; settings: in vivo, read-out: Vdss
[25] = Volume of distribution at steady state in mouse at 1 mg/kg, iv; type: ADME, organism-based; settings: in vivo, read-out: Vdss
[26] = Clearance in monkey plasma at 0.1 mg/kg, iv; type: ADME, organism-based, Macaca mulatta; settings: rhesus monkey
[27] = Half life in monkey at 0.1 mg/kg, iv; type: ADME, organism-based, Macaca mulatta; settings: rhesus monkey, in vivo
[28] = Half life in dog at 0.1 mg/kg, iv; type: ADME, organism-based, Canis lupus familiaris; settings: in vivo
[29] = Half life in mouse at 1 mg/kg, iv; type: ADME, organism-based; settings: in vivo
[30] = Half life in rat at 1 mg/kg, iv; type: ADME, organism-based; settings: in vivo
[31] = Unbound hepatic clearance in monkey liver microsomes; type: ADME, Macaca mulatta, Microsome; settings: rhesus monkey
[32] = Oral bioavailability in rat at 1 mg/kg; type: ADME, organism-based; settings: in vivo
[33] = Oral bioavailability in dog at 0.3 mg/kg; type: ADME, organism-based, Canis lupus familiaris; settings: in vivo
[34] = Oral bioavailability in monkey at 0.3 mg/kg; type: ADME, organism-based, Macaca mulatta; settings: rhesus monkey, in vivo
SKM-1 [35] = test: Antitumor activity against human SKM1 cells xenografted in SCID mouse assessed as tumor growth inhibition at 1 mg/kg, po qd for 21 days by caliper method; type: functional, organism-based
[36] = AUC in monkey at 0.3 mg/kg, po; type: ADME, organism-based, Macaca mulatta; settings: rhesus monkey, in vivo
[37] = target: T2, Bromodomain testis-specific protein (Homo sapiens, UniProt Q58F21); test: Inhibition of BRDT BD1 (unknown origin) after 1 hr by TR-FRET assay
[38] = target: T2, Bromodomain testis-specific protein; test: Inhibition of BRDT BD2 (unknown origin) after 1 hr by TR-FRET assay
[39] = Half life in monkey at 0.3 mg/kg, iv; type: ADME, organism-based, Macaca mulatta; settings: rhesus monkey, in vivo
[40] = Volume of drug distribution in monkey at 0.3 mg/kg, iv; type: ADME, organism-based, Macaca mulatta; settings: rhesus monkey, in vivo, read-out: Vdss
[41] = AUC in monkey at 0.3 mg/kg, iv; type: ADME, organism-based, Macaca mulatta; settings: rhesus monkey, in vivo
[42] = Clearance in monkey plasma at 0.3 mg/kg, iv; type: ADME, organism-based, Macaca mulatta; settings: rhesus monkey
[43] = Tmax in mouse at 1 mg/kg, po; type: ADME, organism-based; settings: in vivo
[44] = Tmax in rat at 1 mg/kg, po; type: ADME, organism-based; settings: in vivo
[45] = Tmax in dog at 1 mg/kg, po; type: ADME, organism-based, Canis lupus familiaris; settings: in vivo
[46] = Tmax in monkey at 1 mg/kg, po; type: ADME, organism-based, Macaca mulatta; settings: rhesus monkey, in vivo
[47] = Cmax in mouse at 1 mg/kg, po; type: ADME, organism-based; design: dose 1 mg/kg, route oral; settings: in vivo
[48] = Cmax in rat at 1 mg/kg, po; type: ADME, organism-based; design: dose 1 mg/kg, route oral; settings: in vivo
[49] = Cmax in dog at 1 mg/kg, po; type: ADME, organism-based, Canis lupus familiaris; design: dose 1 mg/kg, route oral; settings: in vivo
[50] = Cmax in monkey at 1 mg/kg, po; type: ADME, organism-based, Macaca mulatta; design: dose 1 mg/kg, route oral; settings: rhesus monkey, in vivo
[51] = Fraction of drug absorbed in mouse portal vein in mouse at 1 mg/kg, po; type: ADME, organism-based; settings: in vivo
[52] = Fraction of drug absorbed in mouse portal vein in rat at 1 mg/kg, po; type: ADME, organism-based; settings: in vivo
[53] = Fraction of drug absorbed in mouse portal vein in dog at 1 mg/kg, po; type: ADME, organism-based, Canis lupus familiaris; settings: in vivo
[54] = Fraction of drug absorbed in mouse portal vein in monkey at 1 mg/kg, po; type: ADME, organism-based, Macaca mulatta; settings: rhesus monkey, in vivo
[55] = Half life in monkey at 0.3 mg/kg, po; type: ADME, organism-based, Macaca mulatta; settings: rhesus monkey, in vivo

CCNC(=O)c1cc2c(-c3cc(S(=O)(=O)CC)ccc3Oc3c(C)cccc3C)cn(C)c(=O)c2[nH]1
Ki [1]: 120 nM
Ki [2]: 1.1 nM
IC50 (SKM-1 [3]): 5.2 nM
IC50 (NCI-H1299): 450 nM
CL free [4]: 90 mL/min/kg
CL free [5]: 700 mL/min/kg
CL free [6]: 1070 mL/min/kg
Papp [7]: 7.68 ×10⁻⁶ cm/s
bioavailability [8]: 53%
AUC [9]: 644 ng·h/mL
AUC [10]: 760 ng·h/mL
AUC [11]: 27 ng·h/mL
half-life [12]: 1 h
half-life [13]: 0.3 h
half-life [14]: 1 h
clearance [15]: 5.67 mL/min/kg
clearance [16]: 11.5 mL/min/kg
clearance [17]: 45.2 mL/min/kg
AUC [18]: 291 ng·h/mL
AUC [19]: 89 ng·h/mL
AUC [20]: 1440 ng·h/mL
AUC [21]: 384 ng·h/mL
Vd [22]: 2.3 L/kg
Vd [23]: 3.5 L/kg
Vd [24]: 1.7 L/kg
Vd [25]: 0.8 L/kg
clearance [26]: 20 mL/min/kg
half-life [27]: 1.5 h
half-life [28]: 3.7 h
half-life [29]: 1 h
half-life [30]: 1.4 h
CL free [31]: 533 mL/min/kg
bioavailability [32]: 7%
bioavailability [33]: 74%
bioavailability [34]: 0%
inhibition (SKM-1 [35]): Active

CCNC(=O)c1cc2c(-c3cc(C(C)(C)O)ccc3Oc3c(C)cc(F)cc3C)cn(C)c(=O)c2[nH]1 [ABBV-744]
IC50 (SKM-1 [3]): 6.7 nM
IC50 (NCI-H1299): 1600 nM
CL free [4]: 143 mL/min/kg
CL free [5]: 750 mL/min/kg
CL free [6]: 200 mL/min/kg
Papp [7]: 2 ×10⁻⁶ cm/s
bioavailability [8]: 58%
AUC [9]: 1050 ng·h/mL
AUC [10]: 2350 ng·h/mL
AUC [11]: 120 ng·h/mL
half-life [12]: 3.4 h
half-life [13]: 4.2 h
half-life [14]: 2.8 h
clearance [15]: 4 mL/min/kg
clearance [16]: 4.83 mL/min/kg
clearance [17]: 11.2 mL/min/kg
AUC [18]: 460 ng·h/mL
AUC [20]: 3800 ng·h/mL
AUC [21]: 500 ng·h/mL
Vd [23]: 5.3 L/kg
Vd [24]: 1.5 L/kg
Vd [25]: 1.3 L/kg
AUC [36]: 14 ng·h/mL
half-life [28]: 4.4 h
half-life [29]: 3 h
half-life [30]: 2.9 h
bioavailability [32]: 24%
bioavailability [33]: 77%
bioavailability [34]: 7%
Ki [37]: 917 nM
Ki [38]: 1 nM
half-life [39]: 2 h
Vd [40]: 3.4 L/kg
AUC [41]: 200 ng·h/mL
clearance [42]: 25.7 mL/min/kg
Tmax [43]: 6 min
Tmax [44]: 7.5 min
Tmax [45]: 2.8 h
Tmax [46]: 1.5 h
Cmax [47]: 210 ng/mL
Cmax [48]: 12 ng/mL
Cmax [49]: 116 ng/mL
Cmax [50]: 5 ng/mL
FaFg [51]: 81
FaFg [52]: 52
FaFg [53]: 87
FaFg [54]: 19
half-life [55]: 2.5 h

Cc1cc(F)cc(C)c1Oc1ccc(C(C)(C)O)cc1-c1cn(C)c(=O)c2[nH]c(C(=O)NC3CC3)cc12
Ki [1]: 230 nM
Ki [2]: 0.5 nM
IC50 (SKM-1 [3]): 6.2 nM
IC50 (NCI-H1299): 1900 nM
CL free [4]: 800 mL/min/kg
CL free [5]: 3330 mL/min/kg
CL free [6]: 333 mL/min/kg
Papp [7]: 1.13 ×10⁻⁶ cm/s

CCNC(=O)c1cc2c(-c3cc(C4(O)CCC4)ccc3Oc3c(C)cc(F)cc3C)cn(C)c(=O)c2[nH]1
Ki [1]: 220 nM
Ki [2]: 1.5 nM
IC50 (SKM-1 [3]): 26 nM
IC50 (NCI-H1299): 2200 nM
CL free [4]: 5830 mL/min/kg
CL free [5]: 15700 mL/min/kg
CL free [6]: 6330 mL/min/kg
Papp [7]: 1.56 ×10⁻⁶ cm/s

CCNC(=O)c1cc2c(-c3cc(S(=O)(=O)CC)ccc3Oc3ccc(F)cc3F)cn(C)c(=O)c2[nH]1
Ki [1]: 6.6 nM
Ki [2]: 0.7 nM
IC50 (SKM-1 [3]): 31 nM
IC50 (NCI-H1299): 110 nM
CL free [4]: 50 mL/min/kg
CL free [5]: < 103 mL/min/kg
CL free [6]: 188 mL/min/kg
Papp [7]: 3.18 ×10⁻⁶ cm/s

CCNC(=O)c1cc2c(-c3ccccc3Cc3c(C)cccc3C)cn(C)c(=O)c2[nH]1
Ki [1]: 2100 nM
Ki [2]: 25 nM
IC50 (SKM-1 [3]): 150 nM
IC50 (NCI-H1299): 4200 nM
CL free [4]: 5330 mL/min/kg
CL free [5]: 38300 mL/min/kg
CL free [6]: 21700 mL/min/kg
Papp [7]: 3.81 ×10⁻⁶ cm/s

CCNC(=O)c1cc2c(-c3cc(C(C)(C)O)ccc3Oc3c(C)cccc3C)cn(C)c(=O)c2[nH]1
Ki [1]: 160 nM
Ki [2]: 0.6 nM
IC50 (SKM-1 [3]): 11 nM
IC50 (NCI-H1299): 1200 nM
CL free [4]: 617 mL/min/kg
CL free [5]: 2830 mL/min/kg
CL free [6]: 1080 mL/min/kg
Papp [7]: 6.3 ×10⁻⁶ cm/s

CCN(C)C(=O)c1cc2c(-c3cc(S(C)(=O)=O)ccc3Oc3ccc(F)cc3F)cn(C)c(=O)c2[nH]1
Ki [1]: 13 nM
Ki [2]: 40 nM
IC50 (SKM-1 [3]): 56 nM
IC50 (NCI-H1299): 390 nM
CL free [4]: 63.3 mL/min/kg
CL free [5]: 288 mL/min/kg
CL free [6]: 282 mL/min/kg
Papp [7]: 16 ×10⁻⁶ cm/s

Source: ChEMBL document CHEMBL4342522 (J Med Chem, 2020)
